Experiment [1] deals with Molt-4 xenografts. Briefly: Molt-4 T-ALL xenograft in SCID mice. It is filed as in vivo, mouse. The settings on record: 100 mg/kg PO twice daily (BID). Here is the method:
In this study, the impact of Compounds 667 and 728 on tumor growth was tested using the Molt-4 T-ALL cancer xenograft model in SCID mice. MOLT-4 (CRL-1582) acute lymphoblastic leukemia cells were obtained from ATCC. These cells were grown in RPMI-1640 medium supplemented with 10% fetal bovine serum, 1% penicillin and streptomycin. Cells were sub-cultured by transferring floating cells to a new flask and trypsinizing adherent cells before subculturing at a ratio of 1:4. Molt-4 cells were harvested by centrifugation and counted using a hemocytometer. Cells were resuspended in PBS at a 5×10^7 cells per mL. Cells were placed on ice and mixed with an equal volume of Matrigel (BD Biosciences CB-40234). This mixture was kept on ice and injected into the left flank of mice in a volume of 0.2 mL, equivalent to 5×10^6 cells per mouse. Twenty-four (24) CB-17 SCID mice were inoculated subcutaneously in the left flank with the Molt-4 cells. Treatment was initiated when the tumors reached a mean volume of approximately 100 mm^3. Mice were allocated to three (3) groups of eight (8) mice. Mice were treated with vehicle, Compound 667 or Compound 728. Compounds 667 and 728 (100 mg/kg) were given orally (PO) twice daily (BID) beginning on Day 1. Animal weights and conditions were recorded daily, and tumors were measured on Mondays, Wednesdays and Fridays.

In experiment [2] the test system is 3T3 cells. Description: MTT cell proliferation assay. The format is cell-based. To be noted: Mus musculus. The procedure, abridged: (§1)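 Cytotoxicity was measured by MTT: OD490 of the solubilized formazan after roughly 4 h with MTT reagent, reported as mean percent inhibition relative to the negative control. Test compounds covered eight concentrations between 1 nM and 30 μM, added to 5,000–10,000 cells per well that had attached overnight.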
A general note: Formazan colour is commonly taken as a measure of viable cells.

In experiment [3] the test system is Z138 cells. Description: MTT cell proliferation assay. The format is cell-based. The settings on record: Homo sapiens. The method, boiled down:
as §1

In experiment [4] the test system is MS751 cells. Description: MTT cell proliferation assay. It is filed as cell-based. To be noted: Homo sapiens. The method, boiled down:
as §1

Experiment [5] concerns Hep G2 cells. Briefly: MTT cell proliferation assay. It is filed as cell-based. The settings on record: Homo sapiens, HepG2; Hep G2 cell line; read-out: MTT Assay IC50, Hep G2. How it is done: (§2) The MTT cell proliferation assay was used to study the cytotoxic properties of the compounds. The assay was performed according to the method described by Roche Molecular Biochemicals, with minor modifications. The assay is based on the cleavage of the tetrazolium salt, MTT, in the presence of an electron-coupling reagent. The water-insoluble formazan salt produced must be solubilized in an additional step. Cells grown in a 96-well tissue culture plate were incubated with the MTT solution for approximately 4 hours. After this incubation period, a water-insoluble formazan dye formed. After solubilization, the formazan dye was quantitated using a scanning multi-well spectrophotometer (ELISA reader). […] The cells were seeded at 5,000-10,000 cells in each well of 96-well plate in 100 μL of fresh culture medium and were allowed to attach overnight. The stock solutions of the compounds were diluted in 100 μL cell culture medium to obtain eight concentrations of each test compound, ranging from 1 nM to 30 μM. […] All optical densities were measured at 490 nm using a Vmax Kinetic Microplate Reader (Molecular Devices). In most cases, the assay was performed in duplicate and the results were presented as a mean percent inhibition to the negative control±SE. The following formula was used to calculate the percent of inhibition: Inhibition (%)=(1−(ODo/OD))×100.
(§3) The M24 cell line is derived from human melanoma cells. The U2OS cell line is a human osteosarcoma cell line expressing wild type p53 and Rb, but lacking p16. The MM1S cell line is a multiple myeloma cell line; the parent cell line, MM.1, was established from peripheral blood of a multiple myeloma patient who had become resistant to steroid-based therapy. The RPMI8226 cell line is derived from human B lymphocyte cells. NHDF cells are normal human dermal fibroblast cells. The MRC-5 cell line is derived from normal lung tissue of a fetus. The PC3 cell line is a human prostate cancer cell line. The DU-145 cell line is a human prostate cancer cell line. The MDA-MB-231 cell line is a human breast adenocarcinoma cell line. The MDA-MB-468 cell line is a human breast carcinoma cell line. HL-60 cells are human promyelocytic leukemia cells. Hep G2 cells are human hepatocellular carcinoma cells. HEP 3B cells are human hepatocellular carcinoma cells. The DLD-1 cell line is a colorectal adenocarcinoma cell line. The HCT-15 cell line is a human colon carcinoma cell line. The Colo-205 cell line is derived from a human adenocarcinoma of the colon. The LoVo cell line is a human colon adenocarcinoma cell line.

The subject of experiment [6] is MRC-5 cells. Description: MTT cell proliferation assay. The format is cell-based. To be noted: Homo sapiens, MRC5; MRC-5 cell line. How it is done: as §2, §3
Experiment [7] has as its system HEP 3B cells. Description: MTT cell proliferation assay. The format is cell-based. To be noted: Homo sapiens, Hep3B; HEP 3B cell line; read-out: MTT Assay IC50, HEP 3B. How it is done: as §2, §3
Experiment [8] has as its system HL-60 cells. Description: MTT cell proliferation assay. The format is cell-based. The settings on record: Homo sapiens. Here is the method: as §2, §3
For experiment [9], the system named is MM1S cells. Briefly: MTT cell proliferation assay. It is filed as cell-based. To be noted: Homo sapiens, MM1.S. Here is the method: as §2, §3
Experiment [10] deals with RPMI8226 cells. Briefly: MTT cell proliferation assay. It is filed as cell-based. To be noted: Homo sapiens, RPMI-8226. How it is done: as §2, §3
The subject of experiment [11] is MDA-MB-468 tumors. Briefly: Antibody staining of resected MDA-MB-468 tumors from treated mice. The format is in vivo, mouse. The settings on record: mice bearing MDA-MB-468 tumors; 30 mg/kg orally every day for three weeks. Here is the method: Mice bearing MDA-MB-468 tumors were treated for three weeks with 30 mg/kg Compound 525 orally every day. Tumors were resected from the mice and fixed in buffered formalin and put into paraffin blocks. The blocks were sectioned and stained with antibodies against Ki67, Apotag, c-Myc, p-S473-Akt1 or p-S450-Akt1. The cells were imaged with a Nikon microscope.

Experiment [12] deals with MDA-MB-231 cells. Briefly: MTT cell proliferation assay. It is filed as cell-based. To be noted: Homo sapiens; MDA-MB-231 cell line; read-out: MTT Assay IC50, MDA-MB-231. How it is done:
as §2, §3

Where [13] appears, read: NIH3T3, approximately 64-72 hours incubation, read-out: MTT Assay IC50, 3T3.
Setting [14] is: Z-138, Z138 cells, approximately 64-72 hours incubation, read-out: MTT Assay IC50, Z-138.
Where [15] appears, read: MS751, MS751 cells, approximately 64-72 hours incubation, read-out: MTT Assay IC50, MS-751.
Setting [16] is: NIH3T3, approximately 64-72 hours incubation, read-out: MTT Assay IC50 3T3.
Where [17] appears, read: Z-138, Z138 cells, approximately 64-72 hours incubation, read-out: MTT Assay IC50 Z-138.
Where [18] appears, read: MS751, MS751 cells, approximately 64-72 hours incubation, read-out: MTT Assay IC50 MS-751.

The text below walks through data of patent US12331040B2 (Karyopharm Therapeutics Inc., priority 2013, dated 2025).

Read-outs that look alike come from different tables or passages of the source.

One may read the IC50 as the midpoint of a concentration-inhibition curve. As for `Nc1ccc(/C=C/C(=O)NCc2cc3cc(-c4ccc(C(=O)N5CCC(F)(F)CC5)cc4)cc(-c4ccc(F)cc4)c3o2)cn1` [Compound 728, (E)-3-(6-aminopyridin-3-yl)-N-((5-(4-(4,4-difluoropiperidine-1-carbonyl)phenyl)-7-(4-fluorophenyl)benzofuran-2-yl)methyl)acrylamide], the “median tumor volume of Molt-4 xenografts (as a percentage of pre-dose tumor volume)” value in experiment [1] was “tumor growth inhibition”. In addition, the IC50 in experiment [2] (setting [13]) is 100 to 5000 nM; in [3] (setting [14]), under 100 nM; in [4] (setting [15]) it was under 100 nM.

With `Nc1ccc(/C=C/C(=O)NCc2cc3cc(-c4ccc(C(=O)N5CCOCC5)cc4)cc(Cl)c3o2)cn1` [Compound 502, (E)-3-(6-aminopyridin-3-yl)-N-((7-chloro-5-(4-(morpholine-4-carbonyl)phenyl)benzofuran-2-yl)methyl)acrylamide], the IC50 is 100 to 5000 nM in [5]; 100 to 5000 nM in [6]; 100 to 5000 nM in experiment [7]; over 10000 nM in [2] (setting [16]); 100 to 5000 nM in experiment [3] (setting [17]); 100 to 5000 nM in experiment [4] (setting [18]).

Turning to `Nc1ccc(/C=C/C(=O)NCc2cc3cc(-c4ccc(C(=S)N5CCC(F)(F)CC5)cn4)cc(C(F)(F)F)c3o2)cn1` [Compound 667, (E)-3-(6-aminopyridin-3-yl)-N-((5-(5-(4,4-difluoropiperidine-1-carbonothioyl)pyridin-2-yl)-7-(trifluoromethyl)benzofuran-2-yl)methyl)acrylamide], the “median tumor volume of Molt-4 xenografts (as a percentage of pre-dose tumor volume)” value in experiment [1] is given as “tumor growth inhibition”. In addition, the 50% inhibitory concentration (IC50) in experiment [2] (setting [13]) is over 10000 nM; in experiment [3] (setting [14]) it was under 100 nM; in experiment [4] (setting [15]) it was under 100 nM.

As for `Nc1ccc(/C=C/C(=O)NCc2cc3cc(-c4ccc(C(=O)N5CC[C@H](F)C5)cc4)cc(C(F)(F)F)c3o2)cn1` [Compound 525, (S,E)-3-(6-aminopyridin-3-yl)-N-((5-(4-(3-fluoropyrrolidine-1-carbonyl)phenyl)-7-(trifluoromethyl)benzofuran-2-yl)methyl)acrylamide], the IC50 was 100 to 5000 nM in [8] (HL-60 cell line, read-out: MTT Assay IC50, HL-60); 1060 nM in [8] (HL-60 cells, 72-hour MTT, read-out: HL-60 MTT IC50); 100 to 5000 nM in [9] (MM1S cell line, read-out: MTT Assay IC50, MM1S); 310 nM in experiment [9] (MM1S cells, 72-hour MTT, read-out: MM1S MTT IC50); 100 to 5000 nM in experiment [10] (RPMI8226 cell line, read-out: MTT Assay IC50, RPMI8226); 430 nM in experiment [10] (RPMI8226 cells, 72-hour MTT, read-out: RPMI8226 MTT IC50). The IC50 is over 10000 nM in experiment [2] (NIH3T3, 72-hour MTT, read-out: 3T3 MTT IC50); over 10000 nM in experiment [2] (setting [16]); 100 nM in experiment [3] (Z-138, 72 h, Z-138 cells, 72-hour MTT, read-out: Z-138 MTT IC50); 100 to 5000 nM in experiment [3] (setting [17]); 300 nM in experiment [4] (MS751, 72 h, MS751 cells, 72-hour MTT, read-out: MS751 MTT IC50); 100 to 5000 nM in experiment [4] (setting [18]). Also, the “PAK4 pathway signaling through Akt (phospho-Akt1) in tumors” value in [11] is on record as “overall reductions”. Also, the “apoptosis (Apotag) in tumors” value in [11] is listed as “increase”. The c-Myc in tumors entry in experiment [11] is recorded as “overall reductions”. Moreover, the “proliferation (Ki67) in tumors” value in experiment [11] was “reduction”.

On to `Nc1ccc(/C=C/C(=O)NCc2cc3cc(-c4ccc(C(=O)N5CCOCC5)cn4)cc(C(F)(F)F)c3o2)cn1` [Compound 521, (E)-3-(6-aminopyridin-3-yl)-N-((5-(5-(morpholine-4-carbonyl)pyridin-2-yl)-7-(trifluoromethyl)benzofuran-2-yl)methyl)acrylamide], for which the IC50 in experiment [12] was 100 to 5000 nM; in experiment [2] (setting [16]) it was over 10000 nM; in experiment [3] (setting [17]), under 100 nM; in experiment [4] (setting [18]), under 100 nM.

Take `CC1(C)COCCN1C(=O)c1ccc(-c2cc(C(F)(F)F)c3oc(CNC(=O)/C=C/c4ccc(N)nc4)cc3c2)cc1` [Compound 517, (E)-3-(6-aminopyridin-3-yl)-N-((5-(4-(3,3-dimethylmorpholine-4-carbonyl)phenyl)-7-(trifluoromethyl)benzofuran-2-yl)methyl)acrylamide]: the IC50 is 100 to 5000 nM in experiment [12], over 10000 nM in experiment [2] (setting [16]), 100 to 5000 nM in experiment [3] (setting [17]) and 100 to 5000 nM in [4] (setting [18]).

As for `Nc1ccc(/C=C/C(=O)NCc2cc3cc(-c4ccc(C(=O)N5CCC(F)(F)CC5)cc4F)cc(-c4ccc(Cl)cc4)c3o2)cn1` [Compound 750, (E)-3-(6-aminopyridin-3-yl)-N-((7-(4-chlorophenyl)-5-(4-(4,4-difluoropiperidine-1-carbonyl)-2-fluorophenyl)benzofuran-2-yl)methyl)acrylamide], the IC50 in experiment [2] (setting [13]) is over 10000 nM; in experiment [3] (setting [14]), 100 to 5000 nM; in [4] (setting [15]), 100 to 5000 nM.
